Results from ChEMBL document CHEMBL1201862, “PubChem BioAssay data set” (2004).
Each block holds one compound with its values, some of them ahead of it. Calls of active or inactive are those of the source.

Assays:
[1] = AlphaScreen signal interference compounds, dose response, artefact control for ARNT-TACC3 interaction inhibitor project, biochemical, luminescence, cherry-pick (AID 651705); assay type: functional;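 further: AlphaScreen bead proximity signal that flags compounds interfering with the detection technology; potency reflects signal decrease which marks the compound as an assay artifact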
Melanocortin receptor 4 = Melanocortin receptor 4 (Homo sapiens, UniProt P32245); assay type: functional, cell-based;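 further: Cell-based assay with luminescence read-out, confirmatory dose-response testing for agonist activity of biased ligands at MC4R; human U2OS cells with tagged receptor and beta-arrestin; potency of agonists that increase receptor coupling to beta-arrestin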
Melanocortin receptor 4, sequence (P32245 whole entry): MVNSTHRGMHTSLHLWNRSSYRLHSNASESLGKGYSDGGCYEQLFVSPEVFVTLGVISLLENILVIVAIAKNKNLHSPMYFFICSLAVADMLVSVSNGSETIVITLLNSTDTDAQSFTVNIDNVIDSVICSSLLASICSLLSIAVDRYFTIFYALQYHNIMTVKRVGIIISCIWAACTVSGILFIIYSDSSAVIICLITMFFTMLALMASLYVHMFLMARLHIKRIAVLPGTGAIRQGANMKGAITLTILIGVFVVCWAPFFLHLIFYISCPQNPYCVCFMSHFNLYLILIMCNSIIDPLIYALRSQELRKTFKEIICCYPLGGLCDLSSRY

HEK293 [2] = test: NOD1 signaling inhibitors, primary screen, cell-based, luminescence, uHTS (AID 1578); assay type: functional; settings: Homo sapiens
HEK293 [3] = test: cells; assay type: functional, cell-based; settings: Homo sapiens
HEK293 [4] = test: cells; assay type: functional, cell-based; settings: Homo sapiens; remark: listed apart in the source
[5] = molecular target: Nucleotide-binding oligomerization domain-containing protein 2 (Homo sapiens, UniProt Q9HC29); test: NOD2 signaling inhibitors, cell-based, luminescence, uHTS, HEK293 (AID 1566); assay type: functional
Nucleotide-binding oligomerization domain-containing protein 2, sequence (Q9HC29 whole entry, the tested form may be a part): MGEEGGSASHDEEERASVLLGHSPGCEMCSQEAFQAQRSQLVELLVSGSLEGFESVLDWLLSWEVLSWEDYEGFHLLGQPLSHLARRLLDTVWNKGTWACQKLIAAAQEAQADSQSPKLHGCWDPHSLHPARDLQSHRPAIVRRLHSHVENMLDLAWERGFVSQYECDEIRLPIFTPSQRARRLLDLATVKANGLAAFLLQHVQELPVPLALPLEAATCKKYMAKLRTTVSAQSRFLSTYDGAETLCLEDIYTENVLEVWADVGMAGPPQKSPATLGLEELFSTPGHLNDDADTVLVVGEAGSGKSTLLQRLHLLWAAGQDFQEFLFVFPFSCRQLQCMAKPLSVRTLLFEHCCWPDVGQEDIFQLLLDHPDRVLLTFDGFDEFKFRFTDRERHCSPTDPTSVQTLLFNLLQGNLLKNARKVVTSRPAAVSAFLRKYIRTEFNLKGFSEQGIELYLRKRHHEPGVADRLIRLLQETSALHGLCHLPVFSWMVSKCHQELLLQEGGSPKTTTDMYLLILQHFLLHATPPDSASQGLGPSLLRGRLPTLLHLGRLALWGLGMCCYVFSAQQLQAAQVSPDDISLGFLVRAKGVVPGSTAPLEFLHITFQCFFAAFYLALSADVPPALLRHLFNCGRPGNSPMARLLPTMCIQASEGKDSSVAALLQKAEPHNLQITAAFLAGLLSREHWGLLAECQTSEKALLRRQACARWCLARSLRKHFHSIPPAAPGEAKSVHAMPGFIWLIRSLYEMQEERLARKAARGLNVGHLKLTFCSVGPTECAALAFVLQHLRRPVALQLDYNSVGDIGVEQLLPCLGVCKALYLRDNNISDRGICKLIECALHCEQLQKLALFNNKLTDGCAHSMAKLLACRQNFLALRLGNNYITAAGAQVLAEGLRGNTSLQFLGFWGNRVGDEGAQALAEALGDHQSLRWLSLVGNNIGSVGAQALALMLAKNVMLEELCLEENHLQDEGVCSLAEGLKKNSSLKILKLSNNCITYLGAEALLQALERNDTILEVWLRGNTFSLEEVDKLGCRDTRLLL

HEK293 [6] = test: NOD2 signaling inhibitors in MDP-stimulated cells, cell-based, uHTS, luminescence (AID 2001); assay type: functional; settings: Homo sapiens
HEK293 [7] = test: cells; assay type: functional, cell-based; settings: Homo sapiens; remark: listed apart in the source
Interleukin-8 [8] = molecular target: T1, Interleukin-8 (Homo sapiens, UniProt P10145); test: Dose Response confirmation of uHTS small molecule hits for cystic fibrosis induced NFkb Inhibitors in a TNFa-induced IL8 counterscreen.; assay type: functional; settings: read-out: IC50_Mean
T1 sequence (P10145 whole entry): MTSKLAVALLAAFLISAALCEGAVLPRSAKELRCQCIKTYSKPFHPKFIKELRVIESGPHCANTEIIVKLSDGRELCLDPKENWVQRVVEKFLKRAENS

Interleukin-8 [9] = molecular target: T1, Interleukin-8; test: Dose Response confirmation of uHTS small molecule hits for cystic fibrosis induced NFkb Inhibitors in a PAF-induced IL8 counterscreen.; assay type: functional; settings: read-out: IC50_Mean
[10] = molecular target: Melanin-concentrating hormone receptor 1 (Homo sapiens, UniProt Q99705); test: Late-stage fluorescence-based counterscreen for antagonists of the G-protein coupled receptor 7 (GPR7): cell-based dose response assay to identify antagonists of the melanin-concentrating hormone receptor 1 (MCHR1) Set 6.; assay type: functional
Melanin-concentrating hormone receptor 1, sequence (Q99705 whole entry): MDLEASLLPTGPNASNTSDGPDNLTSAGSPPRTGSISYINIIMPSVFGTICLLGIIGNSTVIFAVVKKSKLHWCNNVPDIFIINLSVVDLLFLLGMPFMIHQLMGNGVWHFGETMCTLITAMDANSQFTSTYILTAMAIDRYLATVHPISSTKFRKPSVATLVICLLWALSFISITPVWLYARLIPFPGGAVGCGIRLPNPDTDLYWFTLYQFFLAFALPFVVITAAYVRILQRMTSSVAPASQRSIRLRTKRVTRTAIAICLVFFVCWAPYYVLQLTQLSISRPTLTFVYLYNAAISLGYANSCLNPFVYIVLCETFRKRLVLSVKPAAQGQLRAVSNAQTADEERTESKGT

[11] = molecular target: Neuropeptides B/W receptor type 1 (Homo sapiens, UniProt P48145); test: GPR7 antagonist potency, late-stage follow-up, cell-based, fluorescence, dose response, set 6 (AID 588583); assay type: functional
Neuropeptides B/W receptor type 1, sequence (P48145 whole entry): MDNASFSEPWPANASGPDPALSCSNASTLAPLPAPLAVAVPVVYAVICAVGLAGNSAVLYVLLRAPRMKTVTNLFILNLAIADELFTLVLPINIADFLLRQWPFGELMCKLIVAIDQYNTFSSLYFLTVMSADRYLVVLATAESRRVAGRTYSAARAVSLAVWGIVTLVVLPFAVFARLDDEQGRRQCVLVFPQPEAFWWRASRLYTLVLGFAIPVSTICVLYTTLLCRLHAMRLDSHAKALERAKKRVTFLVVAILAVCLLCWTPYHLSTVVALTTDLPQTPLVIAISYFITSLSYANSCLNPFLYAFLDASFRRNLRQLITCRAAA

[12] = molecular target: T2, High affinity choline transporter 1 (Homo sapiens, UniProt Q9GZV3); test: CHT inhibitors, dose response, cell-based, 5-point CRC, membrane potential dye (AID 504840); assay type: functional
T2 sequence (Q9GZV3 whole entry): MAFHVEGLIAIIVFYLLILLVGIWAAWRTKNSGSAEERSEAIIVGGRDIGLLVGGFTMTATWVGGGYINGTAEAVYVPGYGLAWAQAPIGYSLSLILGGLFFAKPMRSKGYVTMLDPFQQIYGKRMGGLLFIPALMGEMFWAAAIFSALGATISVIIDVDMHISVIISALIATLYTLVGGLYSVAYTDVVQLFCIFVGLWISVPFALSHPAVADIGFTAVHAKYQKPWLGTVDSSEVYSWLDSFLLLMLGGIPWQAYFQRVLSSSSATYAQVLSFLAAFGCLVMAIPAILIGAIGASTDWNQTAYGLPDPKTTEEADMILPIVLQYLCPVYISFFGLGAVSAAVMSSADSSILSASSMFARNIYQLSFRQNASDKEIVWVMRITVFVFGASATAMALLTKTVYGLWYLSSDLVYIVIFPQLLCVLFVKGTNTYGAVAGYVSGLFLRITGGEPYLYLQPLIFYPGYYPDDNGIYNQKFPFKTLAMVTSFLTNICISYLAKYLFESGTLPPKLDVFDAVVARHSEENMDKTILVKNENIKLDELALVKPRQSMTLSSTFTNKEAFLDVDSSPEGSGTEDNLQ

[13] = molecular target: T2, High affinity choline transporter 1; test: CHT inhibitors, dose response, cell-based, 10-point CRC, membrane potential dye (AID 588401); assay type: functional;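 further: membrane potential dye fluorescence of choline-evoked depolarization via CHT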

EC50 (Melanocortin receptor 4): > 89.2 µM (inactive)
Structure (SMILES): NC(Cc1ccc(Cl)cc1)c1csc(Nc2ccc(-c3ccccc3)nn2)n1 (stereo unspecified)

IC50 [10]: 3.58 µM (active)
IC50 [11]: 3.58 µM (active)
Structure (SMILES): O=c1c(-c2ccccc2F)c(Br)cnn1Cc1cccc2ccccc12

Continued, compound first:

Structure (SMILES): O=C(Nc1ccc(F)cc1)c1nc[nH]c1C(=O)O
AC50 [1]: 105 µM (active)

Structure (SMILES): CCSc1nsc(NC(=O)Nc2cccc(C(C)=O)c2)n1
EC50 (HEK293 [2]): 4.27 µM (active)
IC50 (HEK293 [3]): 1.27 µM (active)
IC50 (HEK293 [4]): > 20 µM (inactive)
EC50 [5]: 6.47 µM (active)
IC50 (HEK293 [6]): 2.39 µM (active)
IC50 (HEK293 [7]): > 20 µM (inactive)
IC50 (Interleukin-8 [8]): 1.77 µM (active)
IC50 (Interleukin-8 [9]): 5.42 µM (active)

Structure (SMILES): CCOc1ccc(C(C#N)c2c(Br)cnn(Cc3cccc4ccccc34)c2=O)cc1 (stereo unspecified)
IC50 [10]: 0.4 µM (active)
IC50 [11]: 0.4 µM (active)

Structure (SMILES): C/C(=N\N=C(N)N)c1ccc(Cl)cc1
IC50 [12]: 7.39 µM (active)
IC50 [13]: 4.01 µM (active)
